Experimental data taken from patent US20180250221A1, “GARDENIA EXTRACT FOR COLOURING THE SKIN” (PIERRE FABRE MEDICAMENT, priority 2015, published 2018).

Tested on: human skin explants
Assay: Colouring effect on human skin explants under survival conditions (ex vivo model)
Type: cell-based
Conditions: 72 hours, C-Cube Dermoscope colorimetric differences, four donors
Method: Owing to the lack of cell and animal pharmacological models, the inventors developed an ex vivo model in order to overcome the difficulties related to absorption of the active agents. Indeed, there is no absorption of crocin without intestinal hydrolysis first and low assimilation of crocetin and of these derivatives after passage.
The objective of this study was to evaluate the colouring effect of various extracts applied to human skin explants under survival conditions over 72 hours. Maintenance under survival conditions is carried out in 6-well culture plates containing culture medium. These culture plates are placed in an incubator at 37° C. with 5% CO2. The studies were carried out on four donors.
The colouring of each medium containing active agents or control is evaluated with the C-Cube Dermoscope (Clinical Edition) from Pixience SAS. The evaluation concerns the maximum colouring which can be obtained, i.e., the 100% level on the colour mapping scale relating to each active agent. The colouring of each explant is measured using the C-Cube Dermoscope (Clinical Edition). First, the explant is placed in a solution of medium with no active agent in order to rinse the explant of the active agent molecules present on the explant surface and which have not penetrated the skin. […]

With `CC(/C=C/C=C(\C)C(=O)O)=C\C=C\C=C(C)\C=C\C=C(/C)C(=O)O` [crocetin] the colouring strength was “high colouring strength”.
